Results: patent publication US20230357314A1, “METHODS FOR ULTRAFAST FORMATION OF DISULFIDE BONDS IN PEPTIDES AND PROTEINS” (TECHNION RESEARCH & DEVELOPMENT FOUNDATION LIMITED, priority 2020, published 2023)
Converted amounts (≈) assume the structure as drawn. Where two headings read alike, the source gives them in different places. Positions of bridges follow the written chain, without caps; N, C: chain ends. Residues, ends and D or L forms follow the SMILES beside them.

What was measured:
[1] = test system: methicillin resistant Staphylococcus aureus (MRSA); details: for MIC: MRSA growth after 17 h at 37° C., LB medium, absorbance at 600 nm, triplicate
[2] = test system: methicillin resistant Staphylococcus aureus (MRSA); experiment: microbe, parasite or virus in culture; details: 17 h

| MIC [2] | Compound | MIC [1] | improvement of the antimicrobial activity ([1]; MRSA MIC analysis, worded as 'even in comparison to' trimethoprim (TMP)) | enhanced activity relative to the wild type plectasin ([1]; MRSA MIC, relative to wild type plectasin) |
| --- | --- | --- | --- | --- |
|  | CC[C@H](C)[C@@H]1NC(=O)[C@H](CO)NC(=O)[C@H](CCCCN)NC(=O)[C@@H]2CSSC[C@@H](C(=O)N[C@@H](Cc3ccc(O)cc3)C(N)=O)NC(=O)[C@H](CCCCN)NC(=O)[C@@H]3CSSC[C@H](NC(=O)[C@H](CCC(N)=O)NC(=O)[C@H](CCSC)NC(=O)[C@H](CC(=O)O)NC(=O)[C@H](CC(=O)O)NC(=O)[C@H](CCC(=O)O)NC(=O)[C@H](CC(=O)O)NC(=O)[C@H](Cc4c[nH]c5ccccc45)NC(=O)[C@@H]4CCCN4C(=O)CNC(=O)[C@H](CC(N)=O)NC(=O)[C@@H](NC(=O)CNC(=O)[C@H](Cc4ccccc4)NC(=O)CN)CSSC[C@H](NC(=O)[C@H](Cc4ccc(O)cc4)NC(=O)CNC(=O)CNC(=O)[C@H](CCCCN)NC(=O)[C@H](Cc4ccc(O)cc4)NC(=O)CNC(=O)[C@H](CCCCN)NC1=O)C(=O)N[C@@H](C)C(=O)N[C@@H](CCCCN)C(=O)NCC(=O)NCC(=O)N[C@@H](Cc1ccccc1)C(=O)N[C@@H](C(C)C)C(=O)N3)C(=O)N[C@@H](Cc1c[nH]cn1)C(=O)N[C@@H](CC(N)=O)C(=O)N[C@@H](Cc1c[nH]cn1)C(=O)N2 [plectasin WT, plectasin, reference compound] | 5 µM (≈ 22 µg/mL) |  |  |
| 2 µM (≈ 0.581 µg/mL) | COc1cc(Cc2cnc(N)nc2N)cc(OC)c1OC [TMP, trimethoprim] |  |  |  |
|  | CC[C@H](C)[C@@H]1NC(=O)[C@H](CO)NC(=O)[C@H](CCCCN)NC(=O)[C@@H]2CSSC[C@@H](C(=O)N[C@@H](Cc3ccc(O)cc3)C(N)=O)NC(=O)[C@H](CCCCN)NC(=O)[C@@H]3CSSC[C@H](NC(=O)[C@H](CCC(N)=O)NC(=O)[C@H](C)NC(=O)[C@H](CC(=O)O)NC(=O)[C@H](CC(=O)O)NC(=O)[C@H](CCC(=O)O)NC(=O)[C@H](CC(=O)O)NC(=O)[C@H](Cc4c[nH]c5ccccc45)NC(=O)[C@@H]4CCCN4C(=O)CNC(=O)[C@H](CC(N)=O)NC(=O)[C@@H](NC(=O)CNC(=O)[C@H](Cc4ccccc4)NC(=O)CN)CSSC[C@H](NC(=O)[C@H](Cc4ccc(O)cc4)NC(=O)CNC(=O)CNC(=O)[C@H](CCCCN)NC(=O)[C@H](Cc4ccc(O)cc4)NC(=O)CNC(=O)[C@H](CCCCN)NC1=O)C(=O)N[C@@H](C)C(=O)N[C@@H](CCCCN)C(=O)NCC(=O)NCC(=O)N[C@@H](Cc1ccccc1)C(=O)N[C@@H](C(C)C)C(=O)N3)C(=O)N[C@@H](Cc1c[nH]cn1)C(=O)N[C@@H](CC(N)=O)C(=O)N[C@@H](Cc1c[nH]cn1)C(=O)N2 [plectasinMet13Ala] (H-GFGCNGPWDEDDAQCHNHCKSIKGYKGGYCAKGGFVCKCY-NH2; disulfide 4-30, 15-37, 19-39; N-terminus assumed) | 1.25 µM (≈ 5.43 µg/mL) | four-fold | four-fold |
